{
  "source": "patent US7781444B2",
  "about": "“Pharmaceutical composition for treating fecal incontinence and anal itch” (S.L.A. Pharma AG, priority 1996, dated 2010)",
  "key": {"[1]": {"test_system": "internal anal pressure, patients with incontinence or constipation", "assay": "NΩ-Nitro-L-arginine ointment in and around the anal canal, manometry before and after application", "format": "in vivo, human", "conditions": "1% ointment, twelve patients", "description": "A 1% ointment was prepared by mixing […] of NΩ-Nitro-L-arginine (obtained from Fluka—part of the Sigma group) in 19.8 g of unguentum merk base.\nThe ointment was then applied in and around the anal canal of twelve patients and the interanal pressure measured by manometry (as discussed previously) before and shortly after application of the ointment."}, "anal resting pressure": {"test_system": "anal resting pressure", "assay": "Phenylephrine ointment applied to anal margin, anal manometry", "format": "in vivo, human", "conditions": "ointment in yellow soft paraffin, up to approximately 500 mg 10% ointment (50 mg of phenylephrine)", "protocol": "Preparations of commercially available ophthalmic 10% phenylephrine hydrochloride (Minims) solution were administered intraanally with the subject in the left lateral position."}, "[2]": {"test_system": "resting anal sphincter pressure, human volunteers", "assay": "Topical phenylephrine gel dose ranging in volunteers: resting anal sphincter pressure and anodermal blood flow", "format": "in vivo", "conditions": "for rise in mean resting anal sphincter pressure (MRP): topical, twelve volunteers", "description": "A composition of base gel had the following composition: carmellose sodium 6 g, polyethylene glycol 30 ml, methylhydroxybenzoate 150 mg, propylhydroxybenzoate 15 mg, made up to volume with distilled water (pH4).\nVarious amounts of phenylephrine was added at 5%, 10%, 20% and 30% w/w to form various compositions for dose ranging studies (FIG. 2).\nTwelve human volunteers aged 21 to 53 (mean 35) were studied on 4 occasions. Measurements of resting anal sphincter pressure and anodermal blood flow (using a laser doppler flowmeter) were taken before and after topical application of increasing concentrations of phenylephrine gel according to example 3 (supplied by Slaco Pharma (UK) Ltd) to the anus. Readings were taken through the day after a single application in order to determine the duration of effect."}, "[3]": {"test_system": "patients with idiopathic passive fecal incontinence", "assay": "Randomised placebo controlled cross over trial of 10% phenylephrine cream in idiopathic passive fecal incontinence", "format": "in vivo, human", "description": "A prospective randomised placebo controlled cross over trial was undertaken to evaluate the use of 10% phenylephrine topical cream (according to examples 3 and 4) for treatment of idiopathic passive fecal incontinence.\n30 Patients completed the study. All patients were assessed by endoanal ultrasound as well as anorectal physiology (to determine maximum resting anal pressure) and laser doppler flowmetry prior to treatment. The latter two measurements are repeated after a 3 week trial of the active agent (phenylephrine 10%) and placebo ‘Incontinence scores’ are determined before and after each treatment."}, "[4]": {"test_system": "patients with ileo-anal pouch and fecal incontinence", "assay": "Randomised placebo controlled cross over trial of 10% phenylephrine cream in patients with ileo-anal pouch", "format": "in vivo, human", "description": "A prospective randomised placebo controlled cross over trial was undertaken to evaluate the use of phenylephrine 10% topical cream (according to examples 2a and 3) for treatment of fecal incontinence in patients with ilco-anal pouch.\n10 Patients are mainly troubled by nocturnal incontinence only, and 2 have both daytime and nocturnal incontinence.\nOf the 10 completed studies, there were 7 women and 3 men, age range (34-67). Anorectal manometry was performed and laser doppler fowmetry on all patients. Incontinence score was determined. All these outcome measures were repeated after treatment with both trial creams (phenylephrine and placebo)."}, "[5]": {"test_system": "maximum resting anal pressure, healthy volunteers", "assay": "Healthy volunteer group, intraanal 10% phenylephrine, manometry", "conditions": "0.5 ml 10% (50 mg) intraanal"}, "[6]": {"test_system": "maximum resting anal pressure, single healthy volunteer", "assay": "Dose response study in single volunteer, intraanal phenylephrine solution, manometry"}, "[7]": {"test_system": "maximum resting anal pressure, patients with passive faecal incontinence", "assay": "Patient group with passive faecal incontinence, intraanal 10% phenylephrine, manometry"}, "[8]": {"test_system": "minor incontinence after ileoanal anastomosis", "conditions": "Surgery 1990; 107: p 311-315; cited from earlier work"}, "[9]": {"conditions": "topical 10% phenylephrine cream"}},
  "data": [
    {"smiles": "NC(=NCCC[C@H](N)C(=O)O)N[N+](=O)[O-]", "note": "[NΩ-Nitro-L-arginine]", "values": [
      {"measurement": "effect on resting internal anal sphincter pressure (in words)", "setting": "[1]", "result": "increase the resting internal an1 sphincter pressure"}
    ]},
    {"smiles": "CNC[C@H](O)c1cccc(O)c1", "note": "[phenylephrine]", "values": [
      {"measurement": "effect of ointment applied to the anal margin", "setting": "anal resting pressure", "result": "no effect"},
      {"measurement": "rise in mean resting anal sphincter pressure (MRP)", "setting": "[2]; 5% phenylephrine gel, p 0.04", "result": 6, "unit": "%"},
      {"measurement": "duration of action of a single application (median)", "setting": "[2]; 10% phenylephrine gel", "result": "7 (range 6 to 8) hours"},
      {"measurement": "rise in mean resting anal sphincter pressure (MRP)", "setting": "[2]; 10% phenylephrine gel, versus pre-treatment", "result": 33, "unit": "%"},
      {"measurement": "post treatment MRP", "setting": "[2]; 10% phenylephrine gel, pre-treatment 85±2, P<0.0001", "result": "127±12", "unit": "cmH2O"},
      {"measurement": "response of MRP at concentrations higher than 10%", "setting": "[2]; higher concentrations of phenylephrine gel (20%, 30% w/w)", "result": "no additional response"},
      {"measurement": "changes in anodermal blood flow", "setting": "[2]; laser doppler flowmeter, topical phenylephrine gel", "result": "No notable changes"},
      {"measurement": "mean resting pressure post phenylephrine", "setting": "[3]; 10% phenylephrine, from 62 pre, no significant change", "result": 58, "unit": "cmH2O"},
      {"measurement": "incontinence score (mean) after treatment", "setting": "[3]; 10% phenylephrine, improved from mean of 14", "result": 10},
      {"measurement": "change in anodermal blood flow", "setting": "[3]; laser doppler flowmetry, after 10% phenylephrine", "result": "no significant change"},
      {"measurement": "patients with significant subjective improvement of symptoms", "setting": "[3]; three of 30 patients, 10% cream for 3 weeks, versus baseline and placebo", "result": 10, "unit": "%"},
      {"measurement": "patients with subjective improvement of symptoms (summary)", "setting": "[3]; [9]", "result": "3/30"},
      {"measurement": "patients with significant improvement of symptoms", "setting": "[4]; 6/10 patients, phenylephrine 10% compared to placebo", "result": 60, "unit": "%"},
      {"measurement": "improvement of incontinence scores (mean)", "setting": "[4]; after phenylephrine 10%, 3% after placebo", "result": 45, "unit": "%"},
      {"measurement": "increase in mean resting anal sphincter pressure compared to baseline", "setting": "[4]; in the improved patients, after phenylephrine 10%, -8% on placebo, p<0.005", "result": 29, "unit": "%"},
      {"measurement": "differences in anodermal blood flow", "setting": "[4]; laser doppler flowmetry", "result": "No differences"},
      {"measurement": "patients with objective improvement (anal sphincter pressure)", "setting": "[4]; of the 7 improved patients", "result": 6, "unit": "patients"},
      {"measurement": "patients with no improvement", "setting": "[4]; phenylephrine 10% cream", "result": "3/10"},
      {"measurement": "mean subjective improvement in symptoms reported by patients", "setting": "[4]; phenylephrine 10% cream, 14% after placebo, p<0.01", "result": 83, "unit": "%"},
      {"measurement": "improvement of incontinence score, one patient", "setting": "[4]; single patient without measurable pressure increase", "result": 47, "unit": "%"},
      {"measurement": "subjective improvement, one patient", "setting": "[4]; single patient, after phenylephrine compared to placebo", "result": 75, "unit": "%"},
      {"measurement": "anal sphincter pressure, one patient", "setting": "[4]; single patient, phenylephrine 10% cream", "result": "no measurable increase"},
      {"measurement": "patients with improvement of symptoms of incontinence (summary)", "setting": "[4]; [9]", "result": "7/10"},
      {"measurement": "maximum resting pressure after application (median)", "setting": "[5]; ten healthy volunteers, pre median 110, post range 120-210, 17.5 KPa, p<0.05", "result": 180, "unit": "cm H2O"},
      {"measurement": "time increased pressure was maintained (duration of the recording, median)", "setting": "[5]; range 14-31 minutes", "result": "≥ 23", "unit": "min"},
      {"measurement": "increase in maximum resting pressure", "setting": "[6]; 0.5 ml 0.1% (0.5 mg) intraanal", "result": "no significant increase"},
      {"measurement": "increase in maximum resting pressure", "setting": "[6]; 0.5 ml 0.5% (2.5 mg) intraanal", "result": "no significant increase"},
      {"measurement": "increase in maximum resting pressure", "setting": "[6]; 0.5 ml 1% (5 mg) intraanal", "result": "no significant increase"},
      {"measurement": "increase in maximum resting pressure", "setting": "[6]; 0.5 ml 5% (25 mg) intraanal", "result": "no significant increase"},
      {"measurement": "resting pressure after instillation", "setting": "[6]; 0.5 ml 10% (50 mg) into the anal canal, from 120 cm H2O before (12-21 KPa)", "result": 210, "unit": "cm H2O"},
      {"measurement": "time over which increase in resting anal pressure was evident (continuous recording)", "setting": "[6]; 0.5 ml 10% (50 mg) intraanal", "result": "≥ 25", "unit": "min"},
      {"measurement": "resting anal pressure 13 hours later", "setting": "[6]; 0.5 ml 10% (50 mg) intraanal, manometry repeated at 13 hours", "result": "returned to pre-treatment level"},
      {"measurement": "median maximum resting pressure after instillation", "setting": "[7]; 0.5 ml 10% (50 mg) intraanal, ten patients, pre median 25, post range 20-80, 5.5 KPa, p=0.39", "result": 55, "unit": "cm H2O"},
      {"measurement": "patients demonstrating a rise in anal pressure", "setting": "[7]; of ten patients, two showed a fall, one no change", "result": "Seven"}
    ]},
    {"smiles": "CCCC(CCC)C(=O)[O-].[Na+]", "note": "[sodium valproate]", "values": [
      {"measurement": "treatment of minor incontinence after ileoanal anastomosis", "setting": "[8]", "result": "useful"}
    ]}
  ]
}
